Data published in US8227207B2, “Bioactive peptides derived from the proteins of egg white by means of enzymatic hydrolysis” (Consejo Superior de Investigaciones Cientifcas, priority 2004, dated 2012).
pIC50: −log10 of the molar value. Residues, ends and D or L forms follow the SMILES beside them.

Target: T1, angiotensin converting enzyme (ACE, EC 3.4.15.1) (Oryctolagus cuniculus, UniProt P12822)
T1 sequence (P12822 34-1310): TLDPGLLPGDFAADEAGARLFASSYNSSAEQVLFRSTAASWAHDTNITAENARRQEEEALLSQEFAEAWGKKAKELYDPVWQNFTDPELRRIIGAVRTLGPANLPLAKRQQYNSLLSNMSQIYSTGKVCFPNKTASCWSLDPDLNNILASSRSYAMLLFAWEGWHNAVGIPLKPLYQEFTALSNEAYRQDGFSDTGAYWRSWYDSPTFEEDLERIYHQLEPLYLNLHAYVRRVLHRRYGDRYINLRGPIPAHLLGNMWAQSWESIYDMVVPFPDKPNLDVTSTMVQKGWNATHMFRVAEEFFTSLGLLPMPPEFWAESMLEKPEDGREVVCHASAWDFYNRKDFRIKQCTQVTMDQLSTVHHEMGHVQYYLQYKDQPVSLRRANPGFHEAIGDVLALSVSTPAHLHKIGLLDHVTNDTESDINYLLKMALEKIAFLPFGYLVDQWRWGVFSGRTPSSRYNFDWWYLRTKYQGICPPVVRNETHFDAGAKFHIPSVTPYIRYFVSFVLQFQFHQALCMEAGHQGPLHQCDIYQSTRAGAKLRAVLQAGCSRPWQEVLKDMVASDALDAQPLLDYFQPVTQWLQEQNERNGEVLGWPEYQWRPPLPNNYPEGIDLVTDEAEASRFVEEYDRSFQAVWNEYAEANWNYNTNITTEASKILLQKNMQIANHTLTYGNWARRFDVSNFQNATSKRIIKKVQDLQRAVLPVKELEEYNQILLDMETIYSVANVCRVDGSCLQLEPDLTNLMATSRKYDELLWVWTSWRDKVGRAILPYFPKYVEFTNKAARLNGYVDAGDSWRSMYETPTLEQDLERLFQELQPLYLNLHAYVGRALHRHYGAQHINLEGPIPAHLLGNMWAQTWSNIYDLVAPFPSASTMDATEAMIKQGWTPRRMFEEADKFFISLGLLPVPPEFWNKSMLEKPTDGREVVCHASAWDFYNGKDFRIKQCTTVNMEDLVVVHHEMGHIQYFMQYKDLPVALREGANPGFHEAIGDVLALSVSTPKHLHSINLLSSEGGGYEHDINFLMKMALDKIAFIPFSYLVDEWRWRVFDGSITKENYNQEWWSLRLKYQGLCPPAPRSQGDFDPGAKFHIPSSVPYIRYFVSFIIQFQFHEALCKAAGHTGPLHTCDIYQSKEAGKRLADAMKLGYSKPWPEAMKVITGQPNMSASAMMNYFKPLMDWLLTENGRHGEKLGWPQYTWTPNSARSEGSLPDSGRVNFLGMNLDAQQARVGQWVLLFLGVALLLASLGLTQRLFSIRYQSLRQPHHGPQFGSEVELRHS
Assay type: biochemical
Method: The inhibitory activity of the angiotensin converting enzyme (ACE) is measured in vitro according to the method of D. W. Cushman and H. S. Cheung (Spectrophotometric assay and properties of the angiotensin-converting enzyme of rabbit lung. Biochemical Pharmacology, 1971, 20: 1637-1648), later on modified by Y. K. Kim, S. Yoon, D. Y. Yu, B. Lönnerdal and B. H. Cheung (Novel angiotensin-I-converting enzyme inhibitory peptides derived from recombinant human αs1-casein expressed in Escherichia coli, Journal of Dairy Research 1999, 66, 431-439).
The substrate hippuryl histidyl leucine (HHL, Sigma Chemicals Co., St. Louis, Mo., USA) is dissolved in a 0.1 M borate buffer with 0.3 M NaCl pH 8.3 to obtain a final concentration of 5 mM. To 100 μl of substrate are added 40 μl of each of the samples whose ACEI activity it is wished to determine. The ACE enzyme (EC 3.4.15.1, Sigma) is added, dissolved in 50% glycerol and diluted 1/10 in bidistilled water at the moment of conducting the assay. The reaction is carried out at 37° C. for 30 minutes in a water-bath. The enzyme is deactivated by lowering the pH with 150 μl of 1 N HCl. The hippuric acid formed is extracted with 1000 μl of ethyl acetate. Following vortex stirring for 20 seconds, it is centrifuged at 4000 rpm for 10 minutes at room temperature. 750 μl of the organic phase are taken and evaporated by heating at 95° C. for 10 minutes. The hippuric acid residue is redissolved in 800 μl of bidistilled water and, following stirring for 20 seconds, the absorbency at 228 nm is measured in a Dur-70 spectrophotometer from Beckman Instruments, Inc., Fullerton, USA.
In order to calculate the percentage of ACEI activity, the following formula is used
The blank is used for correcting the background absorbency. This contains substrate, enzyme and 20 μl of bidistilled water in place of the sample, and the reaction is halted at zero time. The control implies a hundred percent of the enzymatic action on the substrate in the absence of inhibitors and contains 20 μl of water in place of the sample and is incubated the same time as the sample.
The results are presented as the IC50 (μM or μg/ml) or concentration at which 50% of the enzyme's activity is inhibited. The concentration of protein is determined by means of the bicinchonomic acid (BCA) assay (Pierce, Rockford, Ill., USA) using bovine seroalbumin as reference.

CC[C@H](C)[C@H](NC(=O)[C@@H]1CCCN1C(=O)[C@H](Cc1ccc(O)cc1)NC(=O)[C@H](CCCNC(=N)N)NC(=O)[C@H](CCC(=O)O)NC(=O)[C@H](CCC(=O)O)NC(=O)[C@H](C)NC(=O)[C@@H](N)Cc1ccc(O)cc1)C(=O)N[C@@H](CC(C)C)C(=O)O [SEQ. ID. N^o 6] (H-YAEERYPIL-OH; N-terminus and C-terminus assumed)
ACEI activity in vitro (in words) (peptides): potent ACEI activity
pIC50 (read-out: ACEI activity IC50, synthetic peptides): 5.33
